Laboratory results: patent publication US20260131007A1, “Mannose 6-Phosphate Receptor Binding Compounds for the Degradation of Extracellular Proteins” (Avilar Therapeutics, Inc., priority 2023, published 2026)
Where “and” joins values, the source holds several entries; their conditions need not be identical. Equal values may be shown once. Read-outs that look alike come from different tables or passages of the source. Bridge positions count the residues as written; N and C are the ends. Square brackets hold non-standard residues; d marks the D form.

Experiments:
K562 cells = experiment: Ternary complex formation (TCF) in K562 cells, flow cytometry with AF488-labeled human IgG; format: cell-based; settings: AF488-labeled human IgG 300 nM, 4° C., 1 hour
Description: K562 cells were seeded in 96-well assay plate using K562 cell medium, then compounds and AF488-labeled human IgG (final concentration of 300 nM) were added at 4° C. and incubated for 1 hour. Afterwards, the cells were washed once with 1×PBS+0.1% BSA (Cold) and centrifuged at 1000 rpm for 5 minutes. Next, cells were re-suspended in 150 μL 1×PBS+0.1% BSA and ran flow cytometry on iQue® Screener PLUS.

IgG = experiment: Uptake and degradation in K562 cells (Western blot); format: cell-based, human; settings: K562 cells treated with compound and IgG; FIG. 14-17
Description: On day one, cells were harvested, counted, and seeded 1 million/well in 6 well plates for each cell line. On day two, cells were treated with compounds and IgG (Sigma, Cat #14506 dissolved in medium). Treated cells were washed three times with PBS, followed by addition of 200 μL of RIPA buffer (+HALT protease and phosphatase inhibitors) per well. Lysates were left on ice for 5 minutes then were collected into microcentrifuge tubes using a cell scraper. Lysates were then kept on a shaker for 30-60 minutes at 4° C. followed by centrifugation at 14,000 rpm at 4° C. for 15 minutes. Then, supernatants were transferred to fresh tubes and total protein concentration of each sample was determined using Pierce BCA kit. Next, 25 ug total protein of each sample was resolved on a 4-20% gels and transferred to PVDF membranes. Membranes were blocked in TBST+5% milk (made fresh) for one hour while shaking at room temperature. Then, the first antibody was added in TBST+5% milk at 4° C. overnight: a) Rabbit anti-human IgG, Abcam; Cat #ab181236-1:1000, b) anti-β-actin, Cell signaling Tech, Cat #3700S)-1:3000. On the next day, membranes were washed with TBST 10 minutes each for three times. Later, the second antibody was added in TBST+5% milk at room temperature over one hour: a) IRDye 800CW Goat anti Rabbit IgG, Licor, Cat #926-32211)-1:10,000; b) IRDye 680RD Goat anti Mouse IgG (Licor Cat #926-68078)-1:10,000. Then, membranes were washed with TBST 10 minutes each for three times. The results were detected by Licor. Data from the uptake and degradation assay is shown in FIG. 14, FIG. 15, FIG. 16, and FIG. 17.

[1] = biological target: T1, hIGF-IIR and IgG1 (ternary complex) (Homo sapiens, UniProt P01857+P11717); experiment: HTRF-based ternary complex formation assay for hIGF-IIR targeting Extracellular Protein Degraders; format: binding
T1 construct: purchased R&D Systems 6418-GR
Excerpt: The ternary complex formation assay is designed to identify and determine the potency of Extracellular Protein Degrader molecules which can induce the formation of ternary complex between the Extracellular Protein Degrader hIGF-IIR. Titrating Extracellular Protein Degrader to fixed amount of hIGF-IIR results in a bell-shaped curve (except molecules whose binary complex affinity between Extracellular Protein Degrader and hIGF-IIR). The peak mean represents Extracellular Protein Degrader concentration at which maximum ternary complex is formed. Too much or too little Extracellular Protein Degrader leads to decreased ternary complex formation due to formation of binary complex (Hook effect). Dose response of Extracellular Protein Degrader compounds (16-point 3-fold dilution series, 100X) were prepared by Echo Acoustic Liquid Handler (Beckman Coulter Life Sciences) using 384-well LDV microplate. Then 200 nL of the solutions were transferred to an OptiPlate 384-well microplate (PerkinElmer, 6007290). To the assay plate, 10 μL working solution containing 60 nM of Biotinylated-IgG1 (Viva 20211108) and 60 nM of His-tagged hIGF-IIR (R&D Systems, 6418-GR) in assay buffer 50 mM Tris, pH 7.5, 150 mM NaCl, 50 mM CaCl2, 0.01% Tween-20 were added. The plate was incubated for 60 min at room temperature with gentle shaking to allow molecular interaction to reach equilibration. Following this, 10 μL of HTRF detection solution containing 15 nM Streptavidin-d2 (PerkinElmer, 610SADLA) and 0.7 nM MAb Anti 6HIS—Tb cryptate (PerkinElmer, 61HISTLA) in PPI Terbium detection buffer (PerkinElmer, 61DB10RDF) were added. The assay plate was incubated at room temperature with gentle shaking for 60 min to allow HTRF signal to develop. The plate was gently spun on a centrifuge then placed on an EnVision plate reader (Perkin Elmer, EnVision 2104) to read fluorescence ratio of 665 nm/615 nm. Data were analyzed by fitting with Bell-shaped non-linear regression model using GraphPad Prism (GraphPad Software, LLC; version 9.4.1). Mean fluorescence intensity is graphed versus compound concentration and the EC50 for TCF is calculated from the inflection point of the curve (GraphPad).

[2] = biological target: Biotinylated-IgG1 (Viva 20211108); experiment: HTRF ternary complex formation: compound titrated into 60 nM biotinylated IgG1 + 60 nM His-tagged hIGF-IIR (R&D 6418-GR); grade read by the legend '<50 nM = ***'
[3] = biological target: AF488-labeled human IgG (human); experiment: flow cytometry, ternary complex formation on K562 cells at 4 C, compound + 300 nM AF488-labelled human IgG; grade read by the legend '<50 nM = ***'
[4] = biological target: AF488-labeled human IgG (human); experiment: flow cytometry, ternary complex formation on K562 cells at 4 C, compound + 300 nM AF488-labelled human IgG; grade read by the legend '50 nM < IC50 < 250 nM = **'
[5] = biotinylated IgG1 and His-tagged hIGF-IIR, 60 nM each, read-out: TCF (HTRF) EC50

Molecule: CC(C)C[C@H]1NC(=O)[C@H](Cc2c[nH]cn2)NC(=O)[C@H](Cc2c[nH]c3ccccc23)NC(=O)[C@H](C)NC(=O)[C@@H]2CSSC[C@H](NC(=O)[C@H](Cc3c[nH]c4ccccc34)NC(=O)[C@@H](C(C)C)NC(=O)[C@@H](CC(C)C)NC(=O)[C@H](CCC(=O)O)NC(=O)CNC1=O)C(=O)N[C@H]([C@@H](C)O)C(=O)N1CCC[C@@H]1C(=O)N1C[C@@H](NC(=O)CCOCCOCCOCCOCCOCCOCCOCCOCCn3cc(CCCCNC(=O)Nc4ccc5c(c4)Cc4cc(O[C@H]6O[C@H](CCP(=O)(O)O)[C@@H](O)[C@H](O)[C@@H]6O)ccc4-5)nn3)C[C@H]1C(=O)N[C@@H](CC(=O)O)C(=O)N2 [Compound 12]
- EC50 (K562 cells): < 50 nM
- degradation of IgG (gel electrophoresis image) (IgG): degradation of IgG

Molecule: CC(C)C[C@@H]1NC(=O)[C@H](Cc2c[nH]cn2)NC(=O)[C@H](Cc2c[nH]c3ccccc23)NC(=O)[C@H](C)NC(=O)[C@@H]2CSSC[C@H](NC(=O)[C@H](Cc3c[nH]c4ccccc34)NC(=O)[C@H](C(C)C)NC(=O)[C@H](CC(C)C)NC(=O)[C@H](CCC(=O)O)NC(=O)CNC1=O)C(=O)N[C@@H]([C@@H](C)O)C(=O)N1CCC[C@@H]1C(=O)N1C[C@@H](NC(=O)CCOCCOCCOCCOCCOCCOCCOCCOCCn3cc([C@H]4O[C@H](CCP(=O)(O)O)[C@@H](O)[C@H](O)[C@@H]4O)nn3)C[C@H]1C(=O)N[C@@H](CC(=O)O)C(=O)N2 [Compound 8]
- EC50 (K562 cells): < 50 nM
- EC50 [1, 5]: < 50 nM
- degradation of IgG (gel electrophoresis image) (IgG): degradation of IgG

Molecule: CC(C)C[C@@H]1NC(=O)[C@H](Cc2c[nH]cn2)NC(=O)[C@H](Cc2c[nH]c3ccccc23)NC(=O)[C@H](C)NC(=O)[C@@H]2CSSC[C@H](NC(=O)[C@H](Cc3c[nH]c4ccccc34)NC(=O)[C@H](C(C)C)NC(=O)[C@H](CC(C)C)NC(=O)[C@H](CCC(=O)O)NC(=O)CNC1=O)C(=O)N[C@@H]([C@@H](C)O)C(=O)N1CCC[C@@H]1C(=O)N1C[C@@H](NC(=O)COCCOCCOCC(=O)NC(COCCC(=O)NCCOCCn3cc([C@H]4O[C@H](CCP(=O)(O)O)[C@@H](O)[C@H](O)[C@@H]4O)nn3)(COCCC(=O)NCCOCCn3cc([C@H]4O[C@H](CCP(=O)(O)O)[C@@H](O)[C@H](O)[C@@H]4O)nn3)COCCC(=O)NCCOCCn3cc([C@H]4O[C@H](CCP(=O)(O)O)[C@@H](O)[C@H](O)[C@@H]4O)nn3)C[C@H]1C(=O)N[C@@H](CC(=O)O)C(=O)N2 [Compound 2]
- EC50 (K562 cells): < 50 nM
- EC50 [1]: < 50 nM
- degradation of IgG (gel electrophoresis image) (IgG): degradation of IgG

Molecule: CC(C)C[C@@H]1NC(=O)[C@H](Cc2cnc[nH]2)NC(=O)[C@H](Cc2c[nH]c3ccccc23)NC(=O)[C@H](C)NC(=O)[C@@H]2CSSC[C@H](NC(=O)[C@H](Cc3c[nH]c4ccccc34)CC(=O)[C@H](C(C)C)NC(=O)[C@H](CC(C)C)NC(=O)[C@H](CCC(=O)O)NC(=O)CNC1=O)C(=O)N[C@@H]([C@@H](C)O)C(=O)N1CCC[C@@H]1C(=O)N1C[C@@H](NC(=O)CCOCCOCCOCCN(CCOCCOCCOCCn3cc(CCO[C@H]4O[C@H](CCP(=O)(O)O)[C@@H](O)[C@H](O)[C@@H]4O)nn3)CCOCCOCCOCCn3cc(CCO[C@H]4O[C@H](CCP(=O)(O)O)[C@@H](O)[C@H](O)[C@@H]4O)nn3)C[C@H]1C(=O)N[C@@H](CC(=O)O)C(=O)N2 [Compound 9]
- EC50 [1]: < 50 nM

Molecule: CC(C)C[C@@H]1NC(=O)[C@H](Cc2c[nH]cn2)NC(=O)[C@H](Cc2c[nH]c3ccccc23)NC(=O)[C@H](C)NC(=O)[C@@H]2CSSC[C@H](NC(=O)[C@H](Cc3c[nH]c4ccccc34)NC(=O)[C@H](C(C)C)NC(=O)[C@H](CC(C)C)NC(=O)[C@H](CCC(=O)O)NC(=O)CNC1=O)C(=O)N[C@@H]([C@@H](C)O)C(=O)N1CCC[C@@H]1C(=O)N1C[C@@H](NC(=O)CCOCCOCCOCCOCCOCCOCCOCCOCCn3cc(CCO[C@H]4O[C@H](CCP(=O)(O)O)[C@@H](O)[C@H](O)[C@@H]4O)nn3)C[C@H]1C(=O)N[C@@H](CC(=O)O)C(=O)N2 [Compound 6]
- EC50 [1, 5]: < 50 nM

B1: Compound 2 (peptide)
peptide: cyclo(ELVWCT[dP]PDCAWHLG)
modifications: disulfide 5-10; not fully specified (residue 8); also: trivalent linker structure not given here
- EC50 [2]: < 50 nM
- EC50 [3]: < 50 nM

B2: Compound 12 (peptide)
peptide: cyclo(ELVWCT[dP]PDCAWHLG)
modifications: disulfide 5-10; not fully specified (residue 8); also: one triazole-linked A83 group on the PEG8 linker
- EC50 [2]: < 50 nM
- EC50 [3]: < 50 nM

B3: Compound 8 (peptide)
peptide: cyclo(ELVWCT[dP]PDCAWHLG)
modifications: disulfide 5-10; not fully specified (residue 8); also: one triazole-linked A20 group on the PEG8 linker
- EC50 [2]: < 50 nM
- EC50 [3]: < 50 nM

B4: Compound 5 (peptide)
peptide: cyclo(ELVWCT[dP]PDCAWHLG)
modifications: disulfide 5-10; not fully specified (residue 8); also: trivalent linker structure not given here
- EC50 [2]: < 50 nM
- EC50 [4]: > 50 nM and < 250 nM
